Columns and labels:
[1] = test system: MCF-7 neo/HER2 breast cancer tumor xenografts; assay: In vivo mouse tumor xenograft efficacy; set-up: species or system mice
Experimental: (§1) Xenografts were initiated with cancer cells. […] Volume was calculated using the formula: […]

[2] = test system: Endocrine-resistant MCF7-ARO cells; assay: 4 day CellTiter-Glo assay in endocrine resistant cells; type: cell-based, human; conditions: FIG. 40A
Text: Endocrine-resistant MCF7-ARO cells were obtained by letrozole dose escalation over about 4 months.

MCF7-ARO cells = assay: modulation of PI3K pathway and ER pathway markers and apoptosis induction; type: cell-based, human; conditions: Twenty-four hour treatment
Text: Aromatase-expressing MCF7 cells convert androstenedione to estrogen in culture.

PI3K alpha H1047R mutant = PI3K alpha H1047R mutant (Homo sapiens, UniProt P42336, H1047R); conditions: relative to PI3K alpha; Folkes et al (2008); cited from earlier work
[3] = test system: HCC1954.x1 breast tumor xenografts; assay: In vivo mouse tumor xenograft efficacy; set-up: species or system mice; conditions: 150 mg/kg; QD x 21; PO
Experimental: The term uL means microliter.
as §1

cancer cell lines = assay: cell proliferation assays across cancer cell lines (FIGS. 1-3, 12); type: cell-based; conditions: EC50, cell proliferation assays
Text: EC50 values were established for the experiments.

PI3K alpha E545K mutant = PI3K alpha E545K mutant (Homo sapiens, UniProt P42336, E545K); conditions: relative to PI3K alpha; Folkes et al (2008); cited from earlier work
Chain of PI3K alpha E545K mutant (P42336 whole entry E545K): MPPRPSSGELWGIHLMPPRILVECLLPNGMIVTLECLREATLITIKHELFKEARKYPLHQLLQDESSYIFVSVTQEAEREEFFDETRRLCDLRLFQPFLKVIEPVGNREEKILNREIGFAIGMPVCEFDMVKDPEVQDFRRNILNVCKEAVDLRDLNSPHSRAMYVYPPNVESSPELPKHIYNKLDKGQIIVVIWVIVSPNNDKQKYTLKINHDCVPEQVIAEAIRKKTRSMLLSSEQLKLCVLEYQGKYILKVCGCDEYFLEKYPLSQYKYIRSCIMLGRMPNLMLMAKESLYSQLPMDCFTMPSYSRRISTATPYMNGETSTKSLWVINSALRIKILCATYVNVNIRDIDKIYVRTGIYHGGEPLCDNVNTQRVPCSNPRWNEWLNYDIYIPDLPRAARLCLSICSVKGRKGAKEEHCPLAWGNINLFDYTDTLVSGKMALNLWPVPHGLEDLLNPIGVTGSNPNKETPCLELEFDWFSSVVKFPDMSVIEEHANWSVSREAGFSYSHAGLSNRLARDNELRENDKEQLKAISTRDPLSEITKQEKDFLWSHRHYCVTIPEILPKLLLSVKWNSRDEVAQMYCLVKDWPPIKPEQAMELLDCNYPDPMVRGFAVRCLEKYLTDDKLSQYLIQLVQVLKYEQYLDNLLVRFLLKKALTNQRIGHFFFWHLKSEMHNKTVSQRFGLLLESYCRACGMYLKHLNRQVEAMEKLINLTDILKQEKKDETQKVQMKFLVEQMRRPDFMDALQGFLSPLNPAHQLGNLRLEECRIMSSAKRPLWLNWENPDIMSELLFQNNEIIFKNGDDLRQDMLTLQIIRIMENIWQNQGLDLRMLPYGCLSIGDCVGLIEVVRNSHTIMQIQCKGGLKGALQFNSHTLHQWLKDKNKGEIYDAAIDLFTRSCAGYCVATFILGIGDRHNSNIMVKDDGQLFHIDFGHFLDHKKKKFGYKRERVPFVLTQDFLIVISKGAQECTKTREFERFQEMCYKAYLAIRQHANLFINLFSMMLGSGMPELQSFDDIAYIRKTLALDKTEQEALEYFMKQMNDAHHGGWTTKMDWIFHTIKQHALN
Chain of PI3K alpha E545K mutant (P27986 whole entry partner): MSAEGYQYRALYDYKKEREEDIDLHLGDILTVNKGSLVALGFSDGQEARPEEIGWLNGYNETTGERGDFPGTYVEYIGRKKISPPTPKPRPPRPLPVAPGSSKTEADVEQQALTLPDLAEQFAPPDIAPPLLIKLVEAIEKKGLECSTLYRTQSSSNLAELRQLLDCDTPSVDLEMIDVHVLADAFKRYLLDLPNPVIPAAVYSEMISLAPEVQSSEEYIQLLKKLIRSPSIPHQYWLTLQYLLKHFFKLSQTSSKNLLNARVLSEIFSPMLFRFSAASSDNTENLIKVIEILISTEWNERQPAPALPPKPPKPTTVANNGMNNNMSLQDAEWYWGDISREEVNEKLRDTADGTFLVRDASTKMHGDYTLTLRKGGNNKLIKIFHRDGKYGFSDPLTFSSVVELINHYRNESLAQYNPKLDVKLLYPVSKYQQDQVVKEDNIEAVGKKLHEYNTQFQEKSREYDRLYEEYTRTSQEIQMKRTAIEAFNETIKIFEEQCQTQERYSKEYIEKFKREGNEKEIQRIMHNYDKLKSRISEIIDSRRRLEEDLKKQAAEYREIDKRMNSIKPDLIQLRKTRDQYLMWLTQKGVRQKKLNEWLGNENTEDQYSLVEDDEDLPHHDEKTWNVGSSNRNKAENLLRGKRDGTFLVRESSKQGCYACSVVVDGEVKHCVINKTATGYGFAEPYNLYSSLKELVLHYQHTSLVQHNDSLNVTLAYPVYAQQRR

Chain of PI3K alpha H1047R mutant (P42336 whole entry H1047R): as the sequence (P42336 whole entry E545K) above, with K545E, H1047R counted along it
Chain of PI3K alpha H1047R mutant (P27986 whole entry partner): as the sequence (P27986 whole entry partner) above

CC(=O)O[C@@]12CO[C@@H]1C[C@H](O)[C@@]1(C)C(=O)[C@H](O)C3=C(C)[C@@H](OC(=O)[C@H](O)[C@@H](NC(=O)OC(C)(C)C)c4ccccc4)C[C@@](O)([C@@H](OC(=O)c4ccccc4)[C@H]21)C3(C)C [Docetaxel, (2R,3S)—N-carboxy-3-phenylisoserine, N-tert-butyl ester, 13-ester with 5,20-epoxy-1,2,4,7,10,13-hexahydroxytax-11-en-9-one 4-acetate 2-benzoate, trihydrate, reference compound]
% TGI@ day 21 ([1]; QW, 7.5 mg/kg): 69%

CC/C(=C(\c1ccccc1)c1ccc(OCCN(C)C)cc1)c1ccccc1 [tamoxifen, (Z)-2-[4-(1,2-diphenylbut-1-enyl)phenoxy]-N,N-dimethylethanamine]
resistance of endocrine-resistant cells [2]: resistant

C=C1C[C@@H]2[C@H](CC[C@]3(C)C(=O)CC[C@@H]23)[C@@]2(C)C=CC(=O)C=C12 [exemestane]
resistance of endocrine-resistant cells [2]: resistant

N#Cc1ccc(C(c2ccc(C#N)cc2)n2cncn2)cc1 [letrozole, 4,4′-((1H-1,2,4-triazol-1-yl)methylene)dibenzonitrile]
PI3K and ER pathway markers (MCF7-ARO cells): increases HER2 and pAkt, but decreases pmTOR and pp 70S6K | resistance of endocrine-resistant cells [2]: resistant

CS(=O)(=O)N1CCN(Cc2cc3nc(-c4cccc5[nH]ncc45)nc(N4CCOCC4)c3s2)CC1 [GDC-0941, 4-(2-(1H-indazol-4-yl)-6-((4-(methylsulfonyl)piperazin-1-yl)methyl)thieno[3,2-d]pyrimidin-4-yl)morpholine, reference compound]
% TGI@ day 21 ([1]; QD, 150 mg/kg): 80% | PI3K alpha H1047R mutant (PI3K alpha H1047R mutant): 1x | % TGI@ day 21 [3]: 90% | sensitivity of cancer cell lines with HER2 amplification versus those without HER2 amplification (cancer cell lines): 9 times | PI3K alpha E545K mutant (PI3K alpha E545K mutant): 1x

C[C@]12CC[C@@H]3c4ccc(O)cc4C[C@@H](CCCCCCCCC[S+]([O-])CCCC(F)(F)C(F)(F)F)[C@H]3[C@@H]1CC[C@@H]2O (some centres unmarked) [fulvestrant, (7a,1713)-7-{9-[(4,4,5,5,5-pentafluoropentyl)sulfinyl]nonyl}estra-1,3,5(10)-triene-3,17-diol]
resistance of endocrine-resistant cells [2]: resistant
